Experimental data: patent publication US7332489B2, “Methods and compositions of novel triazine compounds” (Reddy US Therapeutics, Inc., priority 2003, dated 2008)
Read-outs that look alike come from different tables or passages of the source.

Test system: TNF-α induced IL-6
Test: TNF-α-induced IL-6 production determined by IL-6 ELISA
Type: cell-based
Conditions: for inhibition at 10 µM: read-out: Inflammation Data, inhibition at 10 uM; for Inflammation Data (result in words): concentration not given; for activity at 10 µM: class = % of control IL6 production
Protocol: Human aortic endothelial cells (HAEC, Clonetics) were cultured according to manufacturer in growth medium (Clonetics): basal medium containing human epidermal growth factor, hydrocortisone, vascular endothelial growth factor, heparin binding growth factor-B, long R3-insulin-like growth factor-1, ascorbic acid, gentamicin/amphotericin and 5% FBS. These cell were allowed to reach at least 90% confluency before subjected to experimental treatments. […] Tumor necrosis factor α was from R&D Systems.
All treatments, compound-added and controls were carried out in serum free media containing 0.2% albumin. Media from all conditions were collected and used for IL-6 ELISA.
IL-6 ELISA was carried out using human IL-6 DuoSet ELISA development kit as described by manufacturer (R&D Systems). Mouse anti-human Il-6 was used as the capture antibody (2 ug/ml) and biotinylated goat anti-human IL-6 (200 ng/ml) was used as the detection antibody. Culture media were incubated with capture antibody (in 96 well) for 2 h at room temperature. Wells were washed three times with wash buffer (0.05% tween-20 in phosphate buffered saline (PBS) pH 7.4) followed by incubation with detection antibody for 2 h at room temperature. Following three washes wells were incubated with Streptavidin-HRP for 20 min. Color development was read at 450 nm in a Microplate reader.

[1] = Homo sapiens, 24 h, Table 5, second part, column 1, read-out: Inhibition of TNF-induced IL6, production
[2] = Homo sapiens, 24 h, Table 5, first part, read-out: Inhibition of TNF-induced IL6 production

COc1ccc(Nc2nc(NC3CCCCCC3)nc(OC3CCCNC3)n2)cc1Cl (centres unmarked)
Inflammation Data, cell death at 10 uM (10 uM): 20%
inhibition at 10 µM (Homo sapiens, 10 uM): 60%

COc1ccc(Nc2nc(NC3CCCCCC3)nc(OC3CCNCC3)n2)cc1Cl
Inflammation Data, cell death at 10 uM (10 uM): 20%

COc1ccc(Nc2nc(NC3CCCCCC3)nc(OCC3CCCN3C)n2)cc1Cl (centres unmarked)
Inflammation Data, cell death at 10 uM (10 uM): total cell death
Inflammation Data, inhibition at 10 uM (10 uM): complete inhibition

COc1ccc(Nc2nc(NC3CCCCCC3)nc(OCCOc3ccccc3F)n2)cc1Cl
Inflammation Data (result in words): Not Active

COc1ccc(Nc2nc(NC3CCCCCC3)nc(OCc3cccc(C)n3)n2)cc1Cl
inhibition at 10 µM (Homo sapiens, 10 uM): 60%

CN(c1nc(Nc2ccc(O)cc2)nc(NC2CCCCCC2)n1)C1CCNCC1
inhibition at 5 µM (Homo sapiens, read-out: Inflammation Data, inhibition at 5 uM): 50%
Inflammation Data, cell death at 5 uM (human, 24 h, 5 µM): 20%
Inflammation Data, cell death at 10 uM (human, 24 h, 10 µM): total cell death

COc1ccc(Nc2nc(NC3CCCCCC3)nc(NC3CCNCC3)n2)cc1
Inflammation Data, cell death at 5 uM (5 uM): 20%
Inflammation Data, cell death at 10 uM (10 uM): > 50%

COc1ccc(Nc2nc(NC3CC3)nc(N(C)C3CCN(C)CC3)n2)cc1Cl
Inflammation Data, cell death at 10 uM (10 uM): 15%
Inflammation Data (result in words): Not active

CCN1CCCC1CNc1nc(Nc2ccc3ncccc3c2)nc(NC2CCCCCC2)n1 (centres unmarked) [Compound 4, N^2-cycloheptyl-N^4-[(1-ethyl-2-pyrrolidinyl)methyl]-N^6-(6-quinolinyl)-1,3,5-triazine-2,4,6-triamine]
activity at 10 µM [1]: 0 to 25%

CCN1CCCC1CNc1nc(Nc2ccc(F)cc2)nc(NC2CCCCCC2)n1 (centres unmarked) [Compound 10, N^2-cycloheptyl-N^4-[(1-ethyl-2-pyrrolidinyl)methyl]-N^6-(4-fluorophenyl)-1,3,5-triazine-2,4,6-triamine]
activity at 10 µM [1]: 0 to 25%

CCN1CCCC1CNc1nc(Nc2ccc(C#N)cc2)nc(NC2CCCCCC2)n1 (centres unmarked) [Compound 11, 4-[(4-(cycloheptylamino)-6-{[(1-ethyl-2-pyrrolidinyl)methyl]amino}-1,3,5-triazin-2-yl)-amino]benzonitrile]
activity at 10 µM [1]: 0 to 25%

CCN1CCCC1CNc1nc(Nc2ccc3c(c2)OCCO3)nc(NC2CCCCCC2)n1 (centres unmarked) [Compound 24, N^2-cycloheptyl-N^4-(2,3-dihydro-1,4-benzodioxin-6-yl)-N^6-[(1-ethyl-2-pyrrolidinyl)methyl]-1,3,5-triazine-2,4,6-triamine]
activity at 10 µM [1]: 0 to 25%

CCN1CCCC1CNc1nc(Nc2ccc(N(C)C)cc2)nc(NC2CCCCCC2)n1 (centres unmarked) [Compound 25, N^2-cycloheptyl-N^4-[4-(dimethylamino)phenyl]-N^6-[(1-ethyl-2-pyrrolidinyl)methyl]-1,3,5-triazine-2,4,6-triamine]
activity at 10 µM [1]: 0 to 25%

CCN(CC)c1ccc(Nc2nc(NCC3CCCN3CC)nc(NC3CCCCCC3)n2)cc1Cl (centres unmarked) [Compound 26, N^2-[3-chloro-4-(diethylamino)phenyl]-N^4-cycloheptyl-N^6-[(1-ethyl-2-pyrrolidinyl)methyl]-1,3,5-triazine-2,4,6-triamine]
cells floating (HAEC, 10 uM compound, seen in the TNF IL6 test): > 50%
activity at 10 µM [2]: 0 to 25%

CCN1CCCC1CNc1nc(Nc2ccc(N3CCOCC3)cc2)nc(NC2CCCCCC2)n1 (centres unmarked) [Compound 27, N^2-cycloheptyl-N^4-[(1-ethyl-2-pyrrolidinyl)methyl]-N^6-[4-(4-morpholinyl)phenyl]-1,3,5-triazine-2,4,6-triamine]
activity at 10 µM [2]: 0 to 25%
activity at 10 µM [1]: 0 to 25%

CCN1CCCC1CNc1nc(Nc2ccc(N3CCN(C)CC3)cc2)nc(NC2CCCCCC2)n1 (centres unmarked) [Compound 28, N^2-cycloheptyl-N^4-[(1-ethyl-2-pyrrolidinyl)methyl]-N^6-[4-(4-methyl-1-piperazinyl)phenyl]-1,3,5-triazine-2,4,6-triamine]
activity at 10 µM [2]: 0 to 25%

CCN1CCCC1CNc1nc(Nc2ccc(NC(C)=O)cc2)nc(NC2CCCCCC2)n1 (centres unmarked) [Compound 29, N-{4-[(4-(cycloheptylamino)-6-{[(1-ethyl-2-pyrrolidinyl)methyl]amino}-1,3,5-triazin-2-yl)-amino]phenyl}acetamide]
activity at 10 µM [2]: 0 to 25%
activity at 10 µM [1]: 0 to 25%
